{"source": "ChEMBL document CHEMBL1201862", "about": "“PubChem BioAssay data set” (2004)", "key": {"Wee1-like protein kinase": {"molecular_target": "Wee1-like protein kinase (Homo sapiens, UniProt P30291)", "sequence (P30291 whole entry)": "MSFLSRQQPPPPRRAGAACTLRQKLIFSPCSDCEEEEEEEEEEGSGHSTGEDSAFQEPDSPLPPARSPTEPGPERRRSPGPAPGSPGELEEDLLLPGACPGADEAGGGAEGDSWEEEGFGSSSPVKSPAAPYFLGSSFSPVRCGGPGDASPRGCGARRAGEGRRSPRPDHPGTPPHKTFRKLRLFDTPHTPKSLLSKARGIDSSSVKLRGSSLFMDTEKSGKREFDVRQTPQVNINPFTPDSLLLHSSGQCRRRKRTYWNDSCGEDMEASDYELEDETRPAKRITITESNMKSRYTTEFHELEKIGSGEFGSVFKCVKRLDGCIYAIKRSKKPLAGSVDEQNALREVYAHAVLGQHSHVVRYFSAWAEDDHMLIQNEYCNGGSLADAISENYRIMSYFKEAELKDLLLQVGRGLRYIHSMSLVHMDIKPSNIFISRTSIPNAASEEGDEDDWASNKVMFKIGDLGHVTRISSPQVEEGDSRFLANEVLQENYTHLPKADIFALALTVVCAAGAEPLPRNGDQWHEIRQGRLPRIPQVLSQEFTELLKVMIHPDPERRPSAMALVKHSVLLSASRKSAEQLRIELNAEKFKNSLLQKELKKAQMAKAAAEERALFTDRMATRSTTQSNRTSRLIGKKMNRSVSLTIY", "test": "Dose Response Cell-based Assay for Inhibitors of Wee1 Degradation. [Related pubchem assays: 1410, 1321 ]", "format": "functional"}, "[1]": {"molecular_target": "T1, Heat shock factor protein 1 (Mus musculus, UniProt P38532)", "T1 sequence (P38532 whole entry)": "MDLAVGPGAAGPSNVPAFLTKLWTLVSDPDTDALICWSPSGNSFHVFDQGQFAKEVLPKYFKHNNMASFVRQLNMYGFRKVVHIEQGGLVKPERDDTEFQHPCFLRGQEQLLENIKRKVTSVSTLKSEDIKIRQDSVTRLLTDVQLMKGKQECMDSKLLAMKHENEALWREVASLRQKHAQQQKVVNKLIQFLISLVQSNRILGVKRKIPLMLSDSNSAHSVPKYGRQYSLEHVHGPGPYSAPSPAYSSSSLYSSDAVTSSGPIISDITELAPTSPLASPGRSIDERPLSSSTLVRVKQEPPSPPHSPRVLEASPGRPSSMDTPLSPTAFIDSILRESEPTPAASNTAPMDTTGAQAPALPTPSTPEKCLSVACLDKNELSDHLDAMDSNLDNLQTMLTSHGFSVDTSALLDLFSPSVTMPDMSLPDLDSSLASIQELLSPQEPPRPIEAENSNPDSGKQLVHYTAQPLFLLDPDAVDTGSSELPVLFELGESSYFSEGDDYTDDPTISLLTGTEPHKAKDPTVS", "test": "inhibition of MG132-induced HSE-luciferase signal, confirmation, cell-based, NIH3T3, luminescence, dose retest (AID 2382);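 note: NIH3T3 fibroblasts with HSF1-driven luciferase reporter stressed by proteasome inhibitor MG132; luminescence from HSF1-driven luciferase expression after 8 hours of MG132 stress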", "format": "functional"}, "[2]": {"test": "HepG2 cell cytotoxicity, dose response, cytotoxicity control for Shn3 inhibitor project, CellTiter-Glo, cherry-picked (AID 624134)", "format": "functional, cell-based"}, "[3]": {"test": "HIV-1 Env-mediated cell fusion inhibitors, dose response, CCR5-tropic Env (AID 2279)", "format": "functional"}}, "note": "Active and inactive are the calls of the source.", "data": [{"molecule": "O=[N+]([O-])c1ccc(Sc2cccc[n+]2[O-])c2nonc12", "values": [{"measurement": "EC50", "setting": "Wee1-like protein kinase", "value": "> 1840 nM (active)"}]}, {"molecule": "CCCC(=O)NC(c1ccc(C(C)C)cc1)c1ccc2cccnc2c1O", "note": "(centres undefined)", "values": [{"measurement": "EC50", "setting": "[1]", "value": "1630 nM (active)"}, {"measurement": "AC50", "setting": "[2]", "value": "1910 nM (active)"}]}, {"molecule": "Oc1c(Cl)cc(Cl)c(Cl)c1Cc1c(O)c(Cl)cc(Cl)c1Cl", "note": "[HEXACHLOROPHENE]", "values": [{"measurement": "IC50", "setting": "[3]", "value": "970 nM (active)"}]}]}
